# Assay results as given in PubChem BioAssay (NCI).
#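 Five compound concentrations were applied to cells in 96-well plates for 48 hours; endpoints were derived by simple linear interpolation of the resulting dose-response curve. Abbreviation: GI50, concentration required for 50% inhibition of growth. The concentration for full growth arrest is given as TGI.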
# Columns and labels:
# Test in all cases: DTP human tumour cell line panel, 48 h
# CAKI-1 renal = tested on: CAKI-1 renal
# HOP-92 NSCLC = tested on: HOP-92 NSCLC
# OVCAR-4 ovarian = tested on: OVCAR-4 ovarian
# SK-MEL-5 melanoma = tested on: SK-MEL-5 melanoma
# A549 NSCLC = tested on: A549 NSCLC
# OVCAR-3 ovarian = tested on: OVCAR-3 ovarian
# OVCAR-8 ovarian = tested on: OVCAR-8 ovarian
# SW-620 colon = tested on: SW-620 colon
# TK-10 renal = tested on: TK-10 renal
# SK-OV-3 ovarian = tested on: SK-OV-3 ovarian
# KM12 colon = tested on: KM12 colon
# DU-145 prostate = tested on: DU-145 prostate
# HS 578T breast = tested on: HS 578T breast
# NCI-H460 lung = tested on: NCI-H460 lung
# SNB-75 CNS = tested on: SNB-75 CNS
# UO-31 renal = tested on: UO-31 renal
# SK-MEL-2 melanoma = tested on: SK-MEL-2 melanoma
# UACC-62 melanoma = tested on: UACC-62 melanoma
# RXF 393 renal = tested on: RXF 393 renal
# A498 renal = tested on: A498 renal
# SK-MEL-28 melanoma = tested on: SK-MEL-28 melanoma
# OVCAR-5 ovarian = tested on: OVCAR-5 ovarian
# NCI/ADR-RES ovarian = tested on: NCI/ADR-RES ovarian
smiles,measurement,setting,value
Fc1ccc(-c2nc(Nc3ccc(-c4nc5ccccc5[nH]4)cc3)nc(N3CCOCC3)n2)cc1,GI50,CAKI-1 renal,1410 nM
same,TGI,CAKI-1 renal,2720 nM
same,GI50,HOP-92 NSCLC,1300 nM
same,TGI,HOP-92 NSCLC,2700 nM
same,GI50,OVCAR-4 ovarian,1040 nM
same,TGI,OVCAR-4 ovarian,2400 nM
same,GI50,SK-MEL-5 melanoma,1690 nM
same,TGI,SK-MEL-5 melanoma,3130 nM
same,GI50,A549 NSCLC,666 nM
same,TGI,A549 NSCLC,2130 nM
same,GI50,OVCAR-3 ovarian,374 nM
same,TGI,OVCAR-3 ovarian,1370 nM
same,GI50,OVCAR-8 ovarian,1120 nM
same,TGI,OVCAR-8 ovarian,2610 nM
same,GI50,SW-620 colon,186 nM
same,TGI,SW-620 colon,372 nM
same,GI50,TK-10 renal,1960 nM
same,TGI,TK-10 renal,3420 nM
same,GI50,SK-OV-3 ovarian,1840 nM
same,TGI,SK-OV-3 ovarian,3280 nM
same,GI50,KM12 colon,370 nM
same,TGI,KM12 colon,1410 nM
same,GI50,DU-145 prostate,452 nM
same,TGI,DU-145 prostate,1640 nM
same,GI50,HS 578T breast,700 nM
same,TGI,HS 578T breast,3020 nM
Cc1ccc(S(=O)(=O)OC[C@@]2(C)CC[C@]3(C)CC[C@]4(C)C(=CC[C@@H]5[C@@]6(C)CCCNC(C)(C)[C@@H]6CC[C@]54C)[C@@H]3C2)cc1,GI50,NCI-H460 lung,1360 nM
same,TGI,NCI-H460 lung,2850 nM
same,GI50,CAKI-1 renal,1600 nM
same,TGI,CAKI-1 renal,2940 nM
same,GI50,SNB-75 CNS,1590 nM
same,TGI,SNB-75 CNS,3100 nM
same,GI50,UO-31 renal,1390 nM
same,TGI,UO-31 renal,2870 nM
same,GI50,SK-MEL-2 melanoma,1820 nM
same,TGI,SK-MEL-2 melanoma,3340 nM
same,GI50,SW-620 colon,1320 nM
same,TGI,SW-620 colon,2820 nM
same,GI50,UACC-62 melanoma,1830 nM
same,TGI,UACC-62 melanoma,3320 nM
same,GI50,RXF 393 renal,1630 nM
same,TGI,RXF 393 renal,3330 nM
same,GI50,A498 renal,1660 nM
same,TGI,A498 renal,3160 nM
same,GI50,KM12 colon,1820 nM
same,TGI,KM12 colon,3430 nM
same,GI50,DU-145 prostate,1680 nM
same,TGI,DU-145 prostate,3130 nM
same,GI50,SK-MEL-28 melanoma,1750 nM
same,TGI,SK-MEL-28 melanoma,3210 nM
same,GI50,OVCAR-5 ovarian,1740 nM
same,TGI,OVCAR-5 ovarian,3200 nM
same,GI50,HS 578T breast,1860 nM
same,TGI,HS 578T breast,4000 nM
same,GI50,NCI/ADR-RES ovarian,2020 nM
same,TGI,NCI/ADR-RES ovarian,4870 nM
